# Reference: article PMC3277640 (Proteins, 2011)
# Where two headings read alike, the source gives them in different places. Ends that are not written are not given here.
# T1: KAP25 alkaline phosphatase signal peptide signal peptide (Escherichia coli, UniProt P00634 = phosphatase)
# T1 chain: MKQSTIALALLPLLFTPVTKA
# B1: Signal peptidase I cytoplasmic domain (protein)
# chain: IVRSFIYEPFQIPSGSMMPTLLIGDFILVEKFAYGIKDPIYQKTLIETGHPKRGDIVVFKYPEDPKLDYIKRAVGLPGDKVTYDPVSKELTIQPGCSSGQACENALPVTYSNVEPSDFVQTFSRRNGGEATSGFFEVPKNETKENGIRLSERKETLGDVTHRILTVPIAQDQVGMYYQQPGQQLATWIVPPGQYFMMGDNRDNSADSRYWGFVPEANLVGRATAIWMSFDKQEGEWPTGLRLSRIGGIH
# What was measured:
# SPase I Δ2-75 = SPase I Δ2-75 (Escherichia coli, UniProt P00803); conditions: data not shown
# [1] = biological target: T1, KAP25 alkaline phosphatase signal …; experiment: fluorescence
molecule,measurement,setting,value
KKKMKQSTIALALLPLLFTPVTKARTPEKKK-NH2 [KAP25],cleavage of KAP25 signal peptide,SPase I Δ2-75; 24 hours of incubation with the enzyme,about 7%
same,cleavage of KAP25 signal peptide,SPase I Δ2-75; 36 hours of incubation with the enzyme,~19%
same,cleavage of KAP25 signal peptide,SPase I Δ2-75; 48 hours of incubation with the enzyme,~27%
B1,Kd,[1],0.25 µM
